Assay results: article PMC8659148, “Drug Repurposing for Influenza Virus Polymerase Acidic (PA) Endonuclease Inhibitor” (Molecules, 2021)

Each compound was assayed against T1, PAN endonuclease domain from influenza A type virus (H1N1) (PAN, residues 1-197) (Influenza A virus, UniProt P03433). Conditions: ssDNA, 1 h, 37 °C; conivaptan 0–[…], dutasteride 0–1000 μM, rifaximin 0–1000 μM, lurasidone 0–3000 μM (Figure S1).
T1 construct: influenza A type virus (H1N1) (PAN, residues 1-197) was cloned; His tag (inferred from pET-28a vector and IMAC purification); made in house; host or cells: E. coli BL21 (DE3)
Assay type: biochemical

SMILES | inhibition of the endonuclease activity of PAN (in words)
O=C1[C@@H]2[C@H]3CC[C@H](C3)[C@@H]2C(=O)N1C[C@@H]1CCCC[C@H]1CN1CCN(c2nsc3ccccc23)CC1 [lurasidone] | no inhibition
C[C@]12C=CC(=O)N[C@@H]1CC[C@@H]1[C@@H]2CC[C@]2(C)[C@@H](C(=O)Nc3cc(C(F)(F)F)ccc3C(F)(F)F)CC[C@@H]12 [dutasteride] | no inhibition
CS(=O)(=O)c1cccc(C[C@H](NC(=O)c2c(Cl)cc3c(c2Cl)CCN(C(=O)c2ccc4ccoc4c2)C3)C(=O)O)c1 [lifitegrast] | inhibitory effect
CO[C@H]1/C=C/O[C@@]2(C)Oc3c(C)c(O)c4c(O)c(c5c(nc6cc(C)ccn65)c4c3C2=O)NC(=O)/C(C)=C\C=C\[C@H](C)[C@H](O)[C@@H](C)[C@@H](O)[C@@H](C)[C@H](OC(C)=O)[C@@H]1C [rifaximin] | no inhibition
